Laboratory results published in patent US20230285227A1, “INGESTIBLE CAPSULES” (Massachusetts Institute of Technology, priority 2022, published 2023).
Where “and” joins values, the source holds several entries; their conditions need not be identical. Identical values can stand only once.

Assays:
[1] = Franz cell vancomycin permeability, capsule vs direct dilution in donor well; settings: 25 tissue samples from n=5 animals, control = direct dilution in donor well, p<0.05
Experimental: Both helical and smooth exteriors were assessed. […] Given inter-animal variability of tissue properties, a ratio of permeability induced by the capsule to the control condition was calculated using a matched-pair format per animal.

[2] = vancomycin permeability in isolated small intestine sections of anesthetized swine, mesenteric venous blood; settings: 100 mg vancomycin, capsules vs sham control pills, p<0.001
Text: In anesthetized swine, sections of the small intestine were isolated to serve as independent testing sites while controlling for animal-specific properties such as hydration status, peristaltic rate, blood pressure, and perfusion.

[3] = FITC-dextran uptake with capsule vs direct application
Text: To assay the capability of the capsule to assist in the delivery of larger molecules, fluorescein isothiocyanate-(FITC) dextran having various molecular weights were delivered using the capsule, at various motor frequencies, and compared to direct application (controls).

[4] = oral insulin, background; cited from earlier work
[5] = oral insulin delivery via capsule or endoscopic spray in the small intestine, blood glucose and insulin monitoring; type: in vivo, swine
Experimental: Blood glucose and insulin concentrations were monitored for a 75-minute period with the drug delivery starting at 15 minutes.

**Q.** What does the source list for `CN[C@H](CC(C)C)C(=O)N[C@H]1C(=O)N[C@@H](CC(N)=O)C(=O)N[C@H]2C(=O)N[C@H]3C(=O)N[C@H](C(=O)N[C@H](C(=O)O)c4cc(O)cc(O)c4-c4cc3ccc4O)[C@H](O)c3ccc(c(Cl)c3)Oc3cc2cc(c3O[C@@H]2O[C@H](CO)[C@@H](O)[C@H](O)[C@H]2O[C@H]2C[C@](C)(N)[C@H](O)[C@H](C)O2)Oc2ccc(cc2Cl)[C@H]1O` [vancomycin]?
**A.** increase of vancomycin drug permeability with capsule delivery compared to controls [1]: over 10 fold; tissue permeability with capsules relative to control [2]: ≥ 20 times the control

**Q.** Which results are given for “fluorescein isothiocyanate-(FITC) dextran”?
**A.** uptake increase at 40 kDa and 70 kDa ([3]; molecular weights 40 kDa and 70 kDa): greatest increases; uptake with the capsule compared to direct application ([3]; molecular weights as high as 150 kDa, various motor frequencies): significantly increase uptake

**Q.** For insulin, which oral bioavailability [4] is on record?
**A.** less than 2.5%

**Q.** What about the “variance of blood glucose from baseline” value ([5]; 100 units insulin by endoscopic spray in the small intestine (control), n=5) of the same compound?
**A.** 16.6 ± 17.3 mg/dL

**Q.** What about the “average blood glucose reduction” value ([5]; 100 units insulin via the capsule, n=7 animals, 75-minute monitoring) of the same compound?
**A.** 55.54 ± 16.1 mg/dL

**Q.** And the “uptake dynamics compared to subcutaneous or IV injection” value ([5]; capsule delivery of insulin)?
**A.** more gradual uptake

**Q.** And the “time to changes in plasma glucose levels” value ([5]; insulin via the capsule)?
**A.** ≤ 15 min

**Q.** What about the “animals with hypoglycemia (blood glucose<20 mg/dL) necessitating dextrose infusion” value ([5]; insulin via the capsule, ensued at 60 minutes) of the same compound?
**A.** three and 3 out of 7
